Data set [1] deals with microRNA 21. As to the kind of experiment: Binding affinity to 5'-fluorescein labeled pre-miR-21 (unknown origin) by fluorescence based assay. It is filed as nucleic-acid assay.
The target in data set [2] is microRNA 21. In words: Inhibition of pre-miR-21 (unknown origin) dicer cleavage activity preincubated for 30 mins followed by MCF7 cell lysates addition and measured after 30 to 60 mins by FRET method. Format: functional, subcellular.
A short description of data set [3]: Antiproliferative activity against human N15-0385 cells incubated for 72 hrs by WST-1 assay. Format: functional, cell-based. As to conditions: N15-0385, 72 h.
The nature of data set [4]: Selectivity index, ratio of IC50 for inhibition of pre-miR-21 (unknown origin) dicer cleavage activity preincubated for 30 mins followed by MCF-7 cell lysates addition and measured after 30 to 60 mins by FRET method to IC50 for inhibition of pre-miR-21 (unknown origin) dicer cleavage activity preincubated for 30 mins followed by RNAase III addition and measured after 30 to 60 mins by FRET method.

The nature of data set [5]: Antiproliferative activity against human N13-1300 cells incubated for 72 hrs by WST-1 assay. Format: functional, cell-based. As to conditions: N13-1300, 72 h.
The nature of data set [6]: Antiproliferative activity against human MRC5 cells incubated for 72 hrs by WST-1 assay. Format: toxicity, cell-based.
Data set [7] concerns the target microRNA 21. As to the kind of experiment: Inhibition of pre-miR-21 (unknown origin) dicer cleavage activity preincubated for 30 mins followed by RNAase III addition and measured after 30 to 60 mins by FRET method. It is filed as functional.
The test system of data set [8] is U-87 MG. As to the kind of experiment: Antiproliferative activity against human U87 cells incubated for 72 hrs by WST-1 assay. It is filed as functional, cell-based, U-87MG ATCC.
The subject of data set [9] is microRNA 21. In words: Inhibition of pre-miR-21 (unknown origin) dicer cleavage activity upto 1 mM preincubated for 30 mins followed by RNAase III addition and measured after 30 to 60 mins by FRET method. Format: functional. The note with it: time 60-90 min.

Active and inactive are the calls of the source. The rule behind the calls is not given here.

On to `Cc1ccc(S(=O)(=O)NCCc2nc(-c3nc(C(=O)NCCCNCCCCN)cs3)cs2)cc1`, for which binding in data set [1] was put at a Kd of 0.33 µM.
The same measure, in the same setting: in the case of `NCCCCNCCCNC(=O)c1csc(-c2csc(CCNS(=O)(=O)c3cccc4cccnc34)n2)n1` it was 0.33 µM.
Take `CN(C)c1ccc(/N=N/c2ccc(S(=O)(=O)NCCc3nc(-c4nc(C(=O)NCCCNCCCCN)cs4)cs3)cc2)cc1`: the IC50 in data set [2] stood at 6.93 µM; in data set [3], 37.1 µM; in data set [5], 22 µM; in data set [7] it was 1.62 µM; in data set [8], 45.3 µM. The Kd in data set [1] was 0.076 µM. Also, the Ratio IC50 in data set [4] was 4.3. In data set [6], this molecule returned an IC50 at 72 h of more than 100 µM.
As to `CC(C)(C)c1ccc(S(=O)(=O)NCCc2nc(-c3nc(C(=O)NCCCNCCCCN)cs3)cs2)cc1`, the IC50 amounted to 92.8 µM in data set [2] and 16.4 µM in data set [7]. The same molecule displayed a Kd in data set [1] of 0.33 µM. Besides, the Ratio IC50 in [4] is 5.6.
On the same counts, the results for `NCCCCNCCCNC(=O)c1csc(-c2csc(CCNS(=O)(=O)c3cc4ccccc4s3)n2)n1` are 55.5 µM, 11.8 µM, 0.33 µM and 4.7.
For `NCCCCNCCCNC(=O)c1csc(-c2csc(CCN)n2)n1`, the IC50 in [3] is more than 100 µM; in [5], 67.3 µM; in data set [8], 37.4 µM. Further, the Kd in [1] was determined as 3.63 µM. Besides, the IC50 at 72 h in [6] is 16.6 µM. Also, in data set [7] (time 60-90 min), the inhibition entry is “inactive”.
The molecule `C#CCCCCC(=O)NCCc1nc(-c2nc(C(=O)NCCCNCCCCN)cs2)cs1` displayed a Kd in data set [1] of 1.87 µM.
For the molecule `Cc1c(N)nc([C@H](CC(N)=O)NC[C@H](N)C(N)=O)nc1C(=O)N[C@H](C(=O)N[C@H](C)[C@@H](O)[C@H](C)C(=O)N[C@H](C(=O)NCCc1nc(-c2nc(C(=O)NCCCNCCCCN)cs2)cs1)[C@@H](C)O)[C@@H](O[C@@H]1O[C@@H](CO)[C@@H](O)[C@H](O)[C@@H]1O[C@@H]1O[C@H](CO)[C@@H](O)[C@H](OC(N)=O)[C@@H]1O)c1cnc[nH]1`, in data set [9], the inhibition result is “inactive”. The Kd in data set [1] was 12.6 µM.
`NCCCCNCCCNC(=O)c1csc(-c2csc(CCNCc3ccc4scnc4c3)n2)n1`: the IC50 in [2] came to 4.68 µM; in [3], 44.7 µM; in data set [5], 24.5 µM; in [7], 3.74 µM; in data set [8], 16.5 µM. In addition, the Ratio IC50 in data set [4] worked out at 1.3. In addition, in data set [6], the IC50 at 72 h was more than 100 µM.
In turn, `NCCCCNCCCNC(=O)c1csc(-c2csc(CCNC(=O)[C@@H](N)CCCCN)n2)n1` yielded a Kd in [1] of 0.835 µM.
Still for that read-out and setting: in the case of `NCCCCNCCCNC(=O)c1csc(-c2csc(CCNS(=O)(=O)c3ccc4ccccc4c3)n2)n1` it was 0.33 µM.
Turning to `Cn1nnc2c(C(N)=O)ncn2c1=O` [TEMOZOLOMIDE], the IC50 in data set [3] was more than 100 µM; in [5], 20.8 µM.
The molecule `Cc1nc(C)c(S(=O)(=O)NCCc2nc(-c3nc(C(=O)NCCCNCCCCN)cs3)cs2)s1` had an IC50 in [7] of 75.9 µM.
`NCCCCNCCCNC(=O)c1csc(-c2csc(CCNC(=O)[C@@H](N)Cc3c[nH]cn3)n2)n1` displayed a dissociation constant (Kd) in data set [1] of 1.68 µM.
`NCCCCNCCCNC(=O)c1csc(-c2csc(CCNCc3ccccc3)n2)n1`: the IC50 in data set [2] was 195 µM; in data set [7], 31.2 µM. Besides, the Ratio IC50 in data set [4] stood at 6.2.
In the same order, the values of `NCCCCNCCCNC(=O)c1csc(-c2csc(CCNCc3ccc4[nH]cnc4c3)n2)n1` are 50.1 µM, 20.3 µM and 2.5.
On to `NCCCCNCCCNC(=O)c1csc(-c2csc(CCNC(=O)c3ccc4cccnc4n3)n2)n1`, for which, in [1], binding was put at a Kd of 0.4 µM.
As for `NCCCCNCCCNC(=O)c1csc(-c2csc(CCNC(=O)CCCC[C@@H]3SC[C@@H]4NC(=O)N[C@@H]43)n2)n1`, in data set [2] (time 60-90 min), the inhibition entry is “inactive”. In data set [1], this molecule gave a dissociation constant (Kd) of 1.91 µM. The 50% inhibitory concentration (IC50) in data set [7] amounted to 38.3 µM.
For the molecule `NCCCCNCCCNC(=O)c1csc(-c2csc(CCNS(=O)(=O)c3c[nH]cn3)n2)n1`, 20.3 µM corresponded to half-maximal inhibition in data set [7] (IC50).

These data come from ChEMBL document CHEMBL5346965, “Synthesis of Bleomycin-Inspired RNA Ligands Targeting the Biogenesis of Oncogenic miRNAs” (J Med Chem, 2023).
